Test system: GzmB activity in NK-92 cells
Assay: Flow cytometry analysis of protein labeling by ABPs in NK-92 and MDA-MB-231 cells
Type: cell-based, human
Conditions: 5 μM
Description: Figure 3. GzmB ABPs selectively label active GzmB in cells. (A) Gel-based analysis of GzmB labeling by ABPs in NK-92 cells. 5x10^5 NK-92 cells were incubated with each ABP at varying concentrations for 2 h at 37 °C. After cell lysis, protein samples were analyzed by SDS-PAGE and in-gel fluorescence scanning for Cy5 signal. Expression of GzmB was confirmed by western blotting. (B) Gel-based analysis of GzmB labeling by qABP 10 in different cells. 2x10^6 NK-92, MDA-MB-231, Jurkat, and HEK cells were incubated with compound 10 (5 μM) at 37 °C for 2 h. After cell lysis, protein samples were analyzed by SDS-PAGE and in-gel fluorescence scanning for Cy5 signal. […] Protein samples were analyzed by SDS-PAGE and in-gel fluorescence scanning for Cy5 signal. […] Top: Histogram; Bottom: Mean fluorescence intensity (MFI) in MDA-MB-231 cells. […]
Histogram of flow cytometry data for NK-92 cells incubated with qABP 10. Right: Quantification of mean Cy5 fluorescence intensity. […]
3-5 mice/group. For all studies, mice were monitored by daily observation and serial tumor measurements and body weights.
Mice were treated with 20 mg/kg BEC i.v., 10 mg/kg anti-PD1 i.p., 5 mg/kg anti-CTLA4 i.p. or a combination of 10 mg/kg anti-PD-1 and 5 mg/kg anti-CTLA4. […] On day 9 post-treatment, the mice were injected with 2 nmol/g GzmB qABP i.v., followed by fluorescence imaging at 2, 4, 8, and 24 h. […]

Question: Which “fluorescence intensity in NK-92 cells relative to GzmB non-expressing MDA-MB-231 cells” value does the source give for `CC[C@H](C)[C@H](NC(=O)CCCCCN1/C(=C/C=C/C=C/C2=[N+](CC)c3ccc(S(=O)(=O)O)cc3C2(C)C)C(C)(C)c2cc(S(=O)(=O)O)ccc21)C(=O)N[C@@H](CCC(=O)O)C(=O)N1CCC[C@H]1C(=O)NC(CS(=O)(=O)O)P(=O)(Oc1ccc(CCNC(=O)C2CCN(S(=O)(=O)c3ccccc3-c3c4ccc(=[N+]5CCc6ccccc65)cc-4oc4cc(N5CCc6ccccc65)ccc34)CC2)cc1)c1ccccc1` (some centres unmarked) [Compound 10, Cy5-IEPCya^PhP-QSY21] here?
Answer: approximately 9.1 fold

Question: What about the “signal-to-noise (S/N), NK-92 vs MDA-MB-231 cells” value (37 °C, 2 h) of the same molecule?
Answer: 9.09

Reference: doi:10.1101/2025.03.13.643086, “Granzyme-targeting quenched activity-based probes for assessing tumor response to immunotherapy” (bioRxiv, 2025)
